# Measured values published in patent US7998474B2, “Methods for treating an inflammatory disease of the bowel” (Rowett Research Institute, priority 2001, dated 2011).
# Marks after values point to notes of the source that are not given here.
# How the values were obtained:
# Caco-2 cells = assay: Inflammatory cytokine gene expression in Caco-2 cells exposed to S. enteritidis (macroarray, Northern, real-time PCR); format: cell-based
# PPARγ [1] = assay: Northern hybridisation of PPAR mRNA in Caco-2 cells; format: cell-based; conditions: 2 hours
# RelA [NF-κB p65] [2] = assay: Immunofluorescence localisation of RelA in Caco-2 cells; format: cell-based
# PPARγ [3] = assay: Cellular distribution of PPARγ in Caco-2 cells (immunocytochemistry, western blot)
# RelA = assay: Immunoprecipitation of RelA / PPARγ from Caco-2 cells; format: cell-based
# Source text: Immuno-precipitates were resolved using SDS-PAGE. Western blots were developed using a monoclonal anti-RelA [NF-κB p65], anti-PPARγ antibodies and anti-HDAC3 (Santa Cruz).
# A) Immuno-detection RelA. Caco-2 cells prepared following standard culture protocol, treatment groups (1-4). Immunoprecipitates prepared using anti-PPARγ sepharose conjugate.
# IL-8 = IL-8 protein in culture supernatants (ELISA); conditions: co-culture with S. enteritidis over 4 h (S. enteritidis alone 400 pg/ml)
# [4] = Body weight, tissue weights and composition, faecal output in rats; format: in vivo, Hooded Lister rats
# Source text: Twenty-four male specific pathogen-free Hooded Lister rats (40 g), bred in the small animal unit of the Rowett Research Institute, were weaned at 19 days and immediately transferred to a Class II facility. They were housed individually in metabolism cages (Techniplast, Kettering, UK) within flexi-film isolators (Moredun, Animal Health, Penicuik, UK) for the duration of the study (21 days). Nesting tunnels were provided in each metabolism cage and cages were arranged within the isolators to allow sight of but not contact with other animals. Sterile distilled water was available at all times. Rats were weighed daily and faeces was collected throughout the study.
# Data are the means ISD (n=3). The rats were initially given free access to a high quality semi-synthetic (100 g protein kg^−1) lactalbumin-based diet (Grant et al, 2000). […] This was the average daily free intake observed for rats of the same age after oral infection with Salmonella enterica var. Enteritidis and around 70% of the free intake of this diet by non-infected animals. The rats were housed and managed in this manner from weaning to reduce environmental exposure to bacteria and cross-contamination post-weaning (Grant, 1996).
# Twelve of the rats were given B. thetaiotaomicron (approximately 10^8 CFU) once daily from weaning (19d) through to completion of the study. At 34 days of age, six rats pre-treated with B. thetaiotaomicron and six controls were given, by gavage, a single dose of 0.8 ml of Salmonella serovar Enteritidis S1400 culture (approximately 10^9 CFU). The remaining rats were given the equivalent amount of culture medium. All rats were returned to their cages and fed lactalbumin-based diet (7 g rat^−1 day^−1) for a further 6 days. On the final day, the rats were fed 2 g of diet and were killed by halothane (Rhone Merieux, Essex, UK) overdose and exsanguination exactly two hours later. The abdomen was opened and tissues were aseptically removed. […]
# DNA, RNA, protein were determined as before by the diphenylamine, orcinol and modified Lowry methods (Grant et al, 2000). […]
# Myeloperoxidase (MPO) = Myeloperoxidase (MPO) activity in rat tissue; format: in vivo, Hooded Lister rats; conditions: 6d post-infection, mean ± SD, n = 6
# Procedure: Tissue samples were homogenised (1:80 w/v) in ice-cold 5 mM potassium phosphate buffer pH 6.0 using a Janke-Kunkel Ultra-Turrax T25 tissue homogeniser at 20,000 rev min^−1 for 30 seconds and centrifuged (3000 g×30 min, 4° C.). The pellet (1:20 w/v) was sonicated (3×5 sec) in ice-cold 0.5M potassium phosphate pH 6.0 containing hexadecyltrimethyl-ammonium bromide (HETAB, 5 g/l) and ethylenediaminetetraacetic acid (EDTA, 3.72 g/1), left on ice for 30 min and centrifuged (3000 g×30 min, 4° C.) [Stucchi et al, 2000]. The supernatant was frozen until assayed. Myeloperoxidase (MPO) activity was determined by monitoring H2O2 dependent oxidation of 3,3′,5,5′-tetramethylbenzidine (TMB, Dynex Technologies, Ashford, UK) in 50 mM potassium phosphate buffer pH 6.0 (Zimmerman and Granger, 1990). Absorbance at 450 nm was measured after termination of the reaction with 0.18M H2SO4. Human myeloperoxidase (Calbiochem, UK) was used as a standard and values were expressed as MPO equivalents.
# S. enteritidis = S. enteritidis infection of minimal flora rats, MPO in ileal mucosa; conditions: 10^8 cfu B. thetaiotaomicron in jelly for 19 days, then 10^8 S. enteritidis, 6 days post infection, P<0.001
# leukocyte-elastase = assay: Elastase in faeces or intestine contents; format: in vivo, Hooded Lister rats; conditions: mean ± SD, n = 6
# Procedure: Freeze dried faeces or intestine contents were extracted (1:10 w/v) in ice-cold 0.5M potassium phosphate pH 6.0 containing HETAB, EDTA and NaN3 (1 g/l), left on ice for 30 min, centrifuged (3000 g, 30 min, 4° C.) and the supernatants were frozen.
# Sample or leukocyte-elastase (Sigma-Aldrich, Poole, UK) was serially diluted in 0.2M Tris HCl pH 8.0 containing 1 M NaCl and leupeptin (1 mg/l) on a microtiter plate. Substrate (N-succinyl-ala-ala-val-p-nitroanilide, 0.2 g/l, Sigma-Aldrich, Poole, UK) was added and the absorbance at 405 nm monitored immediately and at intervals up to 20 hours during incubation at 37° C. Values were expressed as leukocyte-elastase equivalents.
# Immunoreactive MPO = Immunoreactive MPO in intestinal contents or faeces (competitive ELISA); format: in vivo, Hooded Lister rats; conditions: during 6d post-infection, mean ± SD, n = 6
# Procedure: Immunoreactive MPO in intestinal contents or faeces was determined by a competitive ELISA method. Microtiter plates (Immulon 4, Dynex Technologies, Ashford, UK) were coated [10 ng/well] with human myeloperoxidase in 10 mM phosphate buffered saline pH 7.4 [PBS] overnight at 4° C. After washing [PBS containing Tween-20 (1 ml/l], plates were blocked with PBS containing bovine serum albumin (BSA, 10 g/l) for 1 hour at room temperature. Plates were washed and samples or standards added [50 μl/well] and serially diluted in PBS containing BSA (1 g/l), Tween-20 (1 ml/l) and leupeptin (1 mg/l). Rabbit anti-human myeloperoxidase antibody [Calbiochem, UK, 50 μl/well of 1:4000 dilution] was also added. The plates were incubated for 1 hour, washed and then reacted for 1 hour with biotinylated anti-rabbit IgG followed by Extravidin/peroxidase (EXTRA-3 kit, Sigma-Aldrich, Poole, UK). After washing, TMB reagent (7 μl/well) was added and incubated in the dark for up to 2 hours. The reaction was stopped by addition (50 μl/well) of 0.18M H2SO4 and the absorbance read at 450 nm. Values were expressed as immunoreactive MPO equivalents.
# human PMNs = assay: Transepithelial migration of PMN through Caco-2 monolayer (MPO assay); conditions: Caco-2 Transwell, S. enteritidis, MPO readout
# p38 MAP kinase = assay: Western blot of MAP kinase phosphorylation in Caco-2 cells; format: cell-based; conditions: co-incubation
# [5] = Skeletal (gastrocnemius) muscle accretion in rats; format: in vivo, Hooded Lister rats; conditions: 6 d post-infection
# Procedure: Gastrocnemius muscle is taken as representative of skeletal muscle and total skeletal muscle in young Hooded-Lister rats as approximately 47 times the weight of the gastrocnemius muscle (Bardocz et al, 1996). Initial weight of gastrocnemius muscles 804±10 mg wet weight [194±7 mg dry weight] per 100 g initial fresh body weight.
# Further pieces of jejunum and ileum (15-25 cm from the pylorus and 15-25 cm from the ileo-caecal junction respectively) were collected and frozen in liquid nitrogen for biochemical analysis, as was the remaining small intestine tissue (˜40 cm), liver, spleen, kidney, thymus, lungs, heart and gastrocnemius hind-limb muscles. These were weighed, freeze-dried and reweighed.
# RelA [NF-κB p65] [6] = assay: Supershift EMSA on Caco-2 nuclear extracts; format: cell-based; conditions: S. enteritidis, 2 hours, heat inactivation 70° C. 15 minutes
# Procedure: Where indicated B. thetaiotaomicron was heat inactivated at 70° C. for 15 minutes prior to its addition to the Caco-2 cells.
# Nuclear extracts were incubated with single stranded ^32P-labeled oligonucleotide probes containing consensus binding sequences for NF-κB (SEQ ID NO:1 5′-[…] -3′) or AP-1 (SEQ ID NO: 2 5′-[…] -3′), separated by electrophoresis and visualized by autoradiography. EMSA supershifts were performed using specific NF-κB subunit antibodies. Effects of B. thetaiotaomicron on NFκB and AP-1 signaling were determined by EMSA, western blotting (protein and phosphoprotein), promoter-specific reporter analysis and target gene expression (eg. fos and jun).
# [7] = Viability of the bacterium in jelly; conditions: commercial jelly prepared under anaerobic conditions, set at 4° C.
# Procedure: Ten ml of B. thetaiotaomicron culture was centrifuged (2000 g, 12 min), the pellet was washed with 0.05M phosphate buffered saline pH 7.2 and then resuspended in commercial jelly [10 ml, 37° C., prepared under anaerobic conditions]. The jelly was poured into a sterile petri dish under CO2 and allowed to set at 4° C. Approximately 1 hour later, the jelly was cut into weighed amounts (0.5 g, ˜10^8 CFU B. thetaiotaomicron) and fed to the rats. The bacterium remained viable for at least 6 hours under these conditions. However, usually all jelly was eaten within a few minutes of being placed in the cage.
# NF-κB = NF-κB luciferase reporter in transfected Caco-2 cells; format: cell-based; conditions: bacteria 2 hours, luciferase after 8 hours
# Procedure: C) Caco-2 cells were transfected with PPARγ DN and a NF-κB luciferase reporter construct (DN), and compared with control cells transfected with NF-κB luciferase reporter alone (MOCK).
# Double transfection studies with PPARγ DN and an NF-κB luciferase reporter (gifted by Dr Israel, Pasteur Institute, Paris, France) were performed. […] To avoid this we stimulated the cells for 2 hours and then removed the bacteria by washing and determined luciferase protein production after 8 hours. We found both in the control and PPARγ DN transfected cells, that S. enteritidis induced NF-κB activation and luciferase protein synthesis (P<0.001) (FIG. 5C). In the PPARγ wild type (NT) transfected cells (luciferase alone) this response was attenuated by B. thetaiotaomicron (P<0.028), but not in dominant negative (DN) transfected cells (FIG. 5C). Similarly, there was modification of the cellular distribution of RelA, as determined using immunocytochemistry and laser scanning confocal microscopy (LSCM), in cells transfected with green fluorescent protein (GFP) with and without PPARγ DN. In the control cells (GFP alone) the distribution of RelA was predominantly cytosolic as described above for non-transfected cells (FIG. 5D (insert B,C)). In PPARγ DN transfected cells, the distribution was irregular and RelA localised to both the cytosolic and nuclear compartments (FIG. 5D, (insert D, E)).
# [8] = 800 nM for 4 hours, cells treated with S. enteritidis alone
compound,measurement,setting,value
"CCCCC/C=C/C=C1/C(=O)C=C[C@@H]1C/C=C\CCCC(=O)O [15d-PGJ2, 15-deoxy-Δ^12,14-prostaglandin J2, reference compound]","Activation of inflammatory cytokine expression (TNF-α, IL-8, COX-2) by S. enteritidis","Caco-2 cells; 10^8 S. enteritidis plus drug 10-30 μM, 2 hours, Northern",attenuated
same,PPARγ mRNA after PPAR ligand,"PPARγ [1]; Caco-2 cells, 10^8 S. enteritidis plus 30 μM ligand",decreased
"CCC(=C/[C@H](C)C/C=C/C(C)=C/[C@@H](C)C(=O)[C@@H](C)[C@H](O)[C@@H](C)C/C(C)=C/C(=O)O)/C=C/[C@@H]1OC(=O)C=C[C@@H]1C [LMB, leptomycin B]",RelA in nuclei after inhibition of CRM-1-dependent nuclear export,RelA [NF-κB p65] [2]; cells co-cultured with S. enteritidis and B. thetaiotaomicron,caused an accumulation of RelA in nuclei
same,Nucleocytoplasmic shuttling of PPARγ induced by co-culture of S. enteritidis and B. thetaiotaomicron,"PPARγ [3]; Caco-2 cells, inhibitor treatment",not blocked
"CC(/C=C/C(=O)NO)=C\[C@@H](C)C(=O)c1ccc(N(C)C)cc1 [TSA, trichostatin A]",p65 nuclear accumulation after HDAC inhibition,RelA [NF-κB p65] [2]; [8],partial p65 accumulation
same,Exit of PPARγ to cytosol after HDAC inhibition,PPARγ [3]; [8],accelerated exit of PPARγ to cytosol
same,PPARγ localisation in S. enteritidis-treated Caco-2 cells with inhibitor,PPARγ [3]; S. enteritidis-treated Caco-2 cells,induce punctate cytosolic labeling and export of PPARγ from the nucleus
Bacteroides thetaiotaomicron [BT],IL-10 gene expression,Caco-2 cells,not affected
same,"Induction of TNF-α, IL-8, MIP-2α and COX-2 expression following S. enteritidis exposure","Caco-2 cells; 10^8 S. enteritidis with 10^9 commensal bacteria, 2 hours",attenuated
same,HDAC3 association with RelA,"RelA; Caco-2 cells co-cultured with S. enteritidis and B. thetaiotaomicron, 2 hours",promoted
same,Co-purification of RelA with PPARγ,RelA; cells treated with S. enteritidis in the presence of B. thetaiotaomicron,co-purification of RelA
same,Translocation of RelA to the nucleus,"RelA [NF-κB p65] [2]; Caco-2 cells, 10^8 S. enteritidis, 2 hours",abolish the translocation of RelA to the nucleus
same,IL-8 protein in culture supernatants,IL-8,230 pg/mL
same,Water content of small intestine,[4]; 6 d post-infection,745 ± 24 mg/g
same,Weight of Gastrocnemius muscles,"[4]; 6d post-infection, mean ± SD, n = 6",834 ± 22^a mg wet weight/100 g fresh body weight
same,Adverse effect on gut or systemic metabolism,"[4]; specific pathogen-free rats, daily B. thetaiotaomicron from weaning",no indications that B. thetaiotaomicron adversely affected gut or systemic metabolism
same,Ileum (20 cm) MPO,Myeloperoxidase (MPO),33.1 ± 6.2^a μg
same,Jejunum (20 cm) MPO,Myeloperoxidase (MPO),29.3 ± 5.2 µg
same,mRNA for PPARα and PPARγ,PPARγ [1]; Caco-2 cells exposed to S. enteritidis and B. thetaiotaomicron,decreased
same,Level of MPO in the ileal mucosa,S. enteritidis,significantly attenuated
same,Cellular distribution of PPARγ,"PPARγ [3]; Caco-2 cells, co-culture of S. enteritidis with B. thetaiotaomicron",redistributed to the cytosol
same,Intestinal contents Elastase,leukocyte-elastase; 6d post-infection,210 ± 0.38^a μg
same,Faeces Elastase,leukocyte-elastase; during 6d post-infection,5.7 ± 1.0^a μg/d
same,Faeces MPO,Immunoreactive MPO,2.6 ± 1.0^a μg/d
same,PMN recruitment in vitro,human PMNs,confirmed the anti-inflammatory activity
same,p38 phosphorylation induced by Salmonella,p38 MAP kinase,not modified
same,"Gastrocnemius muscle accretion rate, dry weight",[5],4.2±1.0 mg dry weight per day
same,"Gastrocnemius muscle accretion rate, wet weight",[5],17.0±4.2 mg wet weight per day
same,RelA response (supershift EMSA),RelA [NF-κB p65] [6],inhibited
same,Time the bacterium remained viable in jelly,[7],at least 6 hours
same,"S. enteritidis induced NF-κB luciferase response, PPARγ dominant negative (DN) transfected cells",NF-κB,not
same,"S. enteritidis induced NF-κB luciferase response, PPARγ wild type cells (luciferase alone)",NF-κB; P<0.028,attenuated
